Experimental data as given in PubChem BioAssay AID248 (DTP/NCI, 2004).
Several values for one entry are separate records, joined by “and”; a condition that tells them apart may be missing. Identical values can stand only once. Toxic doses and inconclusive results are not listed.

System: L1210 leukemia ip in BDF1 mice, survival T/C
Assay: NCI In Vivo Anticancer Drug Screen. Data for tumor model L1210 Leukemia (intraperitoneal) in B6D2F1 (BDF1) mice
Settings: endpoint: mean survival time, higher = longer survival
In short: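 Ratio derived from survival: compound-dosed mice over vehicle-dosed mice, all bearing a transplantable tumor.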

[1] = dose: 100.0 mg/kg/injection, schedule: Q01DX009 (ip), vehicle: saline with Tween-80
[2] = dose: 100.0 mg/kg/injection, schedule: Q04DX002 (ip), vehicle: saline with Tween-80
[3] = dose: 200.0 mg/kg/injection, schedule: Q04DX002 (ip), vehicle: saline with Tween-80
[4] = dose: 400.0 mg/kg/injection, schedule: Q04DX002 (ip), vehicle: saline with Tween-80
[5] = dose: 100.0 mg/kg/injection, schedule: Q04DX002 (ip), vehicle: saline
[6] = dose: 200.0 mg/kg/injection, schedule: Q04DX002 (ip), vehicle: saline
[7] = dose: 400.0 mg/kg/injection, schedule: Q04DX002 (ip), vehicle: saline
[8] = dose: 100.0 mg/kg/injection, schedule: Q04DX003 (ip), vehicle: saline with Tween-80
[9] = dose: 200.0 mg/kg/injection, schedule: Q04DX003 (ip), vehicle: saline with Tween-80
[10] = dose: 400.0 mg/kg/injection, schedule: Q01DX009 (ip), vehicle: saline with Tween-80
[11] = dose: 400.0 mg/kg/injection, schedule: Q04DX003 (ip), vehicle: saline with Tween-80
[12] = dose: 100.0 mg/kg/injection, schedule: Q01DX001 (ip), vehicle: saline
[13] = dose: 200.0 mg/kg/injection, schedule: Q01DX001 (ip), vehicle: saline
[14] = dose: 400.0 mg/kg/injection, schedule: Q01DX001 (ip), vehicle: saline

O=C(O)CN1C(=O)c2ccccc2C1=O
T/C (dose: 25.0 mg/kg/injection, schedule: Q01DX009 (ip), vehicle: saline with Tween-80): 91 % of control | T/C (dose: 50.0 mg/kg/injection, schedule: Q01DX009 (ip), vehicle: saline with Tween-80): 98 % of control | T/C [1]: 98 % of control | T/C [2]: 100 % of control | T/C [3]: 103 % of control | T/C [4]: 95 % of control

CCC(=O)C(CCN(C)C)c1ccccn1 (configuration not stated)
T/C (dose: 20.0 mg/kg/injection, schedule: Q01DX Z (ip), vehicle: saline): 103 % of control | T/C (dose: 30.0 mg/kg/injection, schedule: Q01DX Z (ip), vehicle: saline): 91 % of control | T/C (dose: 44.0 mg/kg/injection, schedule: Q01DX Z (ip), vehicle: saline): 91 % of control | T/C (dose: 66.0 mg/kg/injection, schedule: Q01DX Z (ip), vehicle: saline): 93 % of control

O=C(CCC1CCCC1)c1ccccc1
T/C (dose: 12.5 mg/kg/injection, schedule: Q04DX002 (ip), vehicle: saline): 100 % of control | T/C (dose: 25.0 mg/kg/injection, schedule: Q04DX002 (ip), vehicle: saline): 98 % of control | T/C (dose: 50.0 mg/kg/injection, schedule: Q04DX002 (ip), vehicle: saline): 98 % of control | T/C [5]: 98 % of control | T/C [6]: 98 % of control | T/C [7]: 91 % of control

CC(=O)OC1CCCC(OCC(C)C)O1 (configuration not stated)
T/C (dose: 40.0 mg/kg/injection, schedule: Q01DX Z (ip), vehicle: saline): 94 % of control | T/C (dose: 60.0 mg/kg/injection, schedule: Q01DX Z (ip), vehicle: saline): 92 % of control

CCC[N+]12CC=C3COC(=O)C(C)(O)C(C)(O)C(C)C(=O)OC(CC1)C32 (configuration not stated)
T/C (dose: 50.0 mg/kg/injection, schedule: Q01DX009 (ip), vehicle: saline): 92 % of control | T/C (dose: 100.0 mg/kg/injection, schedule: Q01DX009 (ip), vehicle: saline): 95 % of control | T/C (dose: 200.0 mg/kg/injection, schedule: Q01DX009 (ip), vehicle: saline): 95 % of control

O=c1cc(/C=N/Nc2ccc([N+](=O)[O-])cc2[N+](=O)[O-])c2cccc3c2n1CCC3
T/C [1]: 93 % of control | T/C [8]: 98 % of control | T/C [9]: 101 % of control | T/C [10]: 93 % of control | T/C [11]: 102 % of control

O=C(O)C1CCCC2C(O)CCC(O)C12 (configuration not stated)
T/C [12]: 107 % of control | T/C (dose: 100.0 mg/kg/injection, schedule: Q04DX003 (ip), vehicle: saline): 105 % of control | T/C [13]: 93 % of control | T/C (dose: 200.0 mg/kg/injection, schedule: Q04DX003 (ip), vehicle: saline): 111 % of control | T/C [14]: 91 % of control | T/C (dose: 400.0 mg/kg/injection, schedule: Q04DX003 (ip), vehicle: saline): 105 % of control

c1ccc2c(c1)ccc1cc3ccncc3cc12
T/C [12]: 95 % of control and 98 % of control | T/C [13]: 100 % of control and 106 % of control | T/C [14]: 96 % of control

Cc1cccc(NC(=O)Oc2cc(C)c(Cl)cc2C(C)C)c1
T/C (dose: 100.0 mg/kg/injection, schedule: Q01DX001 (ip), vehicle: saline with Tween-80): 103 % of control | T/C [1]: 95 % of control and 103 % of control | T/C [2]: 105 % of control and 108 % of control | T/C [8]: 90 % of control | T/C (dose: 200.0 mg/kg/injection, schedule: Q01DX001 (ip), vehicle: saline with Tween-80): 104 % of control | T/C (dose: 200.0 mg/kg/injection, schedule: Q01DX009 (ip), vehicle: saline with Tween-80): 98 % of control and 103 % of control | T/C [3]: 97 % of control and 87 % of control | T/C [9]: 98 % of control | T/C (dose: 400.0 mg/kg/injection, schedule: Q01DX001 (ip), vehicle: saline with Tween-80): 106 % of control | T/C [10]: 95 % of control and 98 % of control | T/C [4]: 94 % of control and 100 % of control | T/C [11]: 100 % of control

O=C(O)c1ccc(CC2CCCC2)cc1
T/C (dose: 100.0 mg/kg/injection, schedule: Q01DX001 (ip), vehicle: Klucel (hydroxypropylcellulose) (HPC)): 96 % of control | T/C (dose: 100.0 mg/kg/injection, schedule: Q04DX003 (ip), vehicle: Klucel (hydroxypropylcellulose) (HPC)): 93 % of control | T/C (dose: 200.0 mg/kg/injection, schedule: Q01DX001 (ip), vehicle: Klucel (hydroxypropylcellulose) (HPC)): 103 % of control | T/C (dose: 200.0 mg/kg/injection, schedule: Q04DX003 (ip), vehicle: Klucel (hydroxypropylcellulose) (HPC)): 93 % of control | T/C (dose: 400.0 mg/kg/injection, schedule: Q01DX001 (ip), vehicle: Klucel (hydroxypropylcellulose) (HPC)): 97 % of control | T/C (dose: 400.0 mg/kg/injection, schedule: Q04DX003 (ip), vehicle: Klucel (hydroxypropylcellulose) (HPC)): 98 % of control

CN(C)C(=O)Sc1ccc(S(=O)(=O)F)cc1[N+](=O)[O-]
T/C (dose: 100.0 mg/kg/injection, schedule: Q01DX009 (ip), vehicle: Klucel (hydroxypropylcellulose) (HPC)): 110 % of control | T/C (dose: 200.0 mg/kg/injection, schedule: Q01DX009 (ip), vehicle: Klucel (hydroxypropylcellulose) (HPC)): 102 % of control

O=C(CCC(=O)NO)NO
T/C [5]: 110 % of control | T/C [6]: 103 % of control | T/C [7]: 97 % of control

CCCCCCCCCCCCCCCCC(=O)O.[Pb]
T/C (dose: 75.0 mg/kg/injection, schedule: Q01DX001 (ip), vehicle: other): 94 % of control | T/C (dose: 150.0 mg/kg/injection, schedule: Q01DX001 (ip), vehicle: other): 92 % of control | T/C (dose: 300.0 mg/kg/injection, schedule: Q01DX001 (ip), vehicle: other): 92 % of control

CCCNC(=NC)c1ccc(NC(=O)c2ccc(C(=O)Nc3ccc(C(=NC)NCCC)cc3)cc2)cc1
T/C (dose: 1.6 mg/kg/injection, schedule: Q01DX Z (ip), vehicle: saline): 94 % of control | T/C (dose: 2.4 mg/kg/injection, schedule: Q01DX Z (ip), vehicle: saline): 111 % of control | T/C (dose: 3.6 mg/kg/injection, schedule: Q01DX Z (ip), vehicle: saline): 107 % of control and 120 % of control | T/C (dose: 5.5 mg/kg/injection, schedule: Q01DX Z (ip), vehicle: saline): 156 % of control and 162 % of control | T/C (dose: 8.3 mg/kg/injection, schedule: Q01DX Z (ip), vehicle: saline): 151 % of control and 172 % of control | T/C (dose: 12.5 mg/kg/injection, schedule: Q## X000 (oral), vehicle: saline): 103 % of control | T/C (dose: 25.0 mg/kg/injection, schedule: Q## X000 (oral), vehicle: saline): 100 % of control | T/C (dose: 50.0 mg/kg/injection, schedule: Q## X000 (oral), vehicle: saline): 101 % of control | T/C (dose: 250.0 mg/kg/injection, schedule: Q01DX010 (oral), vehicle: saline): 107 % of control | T/C (dose: 500.0 mg/kg/injection, schedule: Q01DX010 (oral), vehicle: saline): 114 % of control

O=C(C(Cl)(Cl)Cl)C(Cl)(Cl)Cl
T/C (dose: 75.0 mg/kg/injection, schedule: Q01DX009 (ip), vehicle: saline with Tween-80): 90 % of control | T/C (dose: 100.0 mg/kg/injection, schedule: Q04DX002 (ip), vehicle: Klucel (hydroxypropylcellulose) (HPC)): 113 % of control | T/C (dose: 150.0 mg/kg/injection, schedule: Q01DX009 (ip), vehicle: saline with Tween-80): 93 % of control | T/C (dose: 200.0 mg/kg/injection, schedule: Q04DX002 (ip), vehicle: Klucel (hydroxypropylcellulose) (HPC)): 113 % of control | T/C (dose: 300.0 mg/kg/injection, schedule: Q01DX009 (ip), vehicle: saline with Tween-80): 86 % of control | T/C (dose: 400.0 mg/kg/injection, schedule: Q04DX002 (ip), vehicle: Klucel (hydroxypropylcellulose) (HPC)): 87 % of control
